{"source": "patent US10464977B2", "about": "(University of Maryland, Baltimore, priority 2016, dated 2019)", "key": {"[1]": {"biological_target": "T1, Sap2 (Candida albicans, UniProt P0DJ06)", "T1 sequence (P0DJ06 57-398)": "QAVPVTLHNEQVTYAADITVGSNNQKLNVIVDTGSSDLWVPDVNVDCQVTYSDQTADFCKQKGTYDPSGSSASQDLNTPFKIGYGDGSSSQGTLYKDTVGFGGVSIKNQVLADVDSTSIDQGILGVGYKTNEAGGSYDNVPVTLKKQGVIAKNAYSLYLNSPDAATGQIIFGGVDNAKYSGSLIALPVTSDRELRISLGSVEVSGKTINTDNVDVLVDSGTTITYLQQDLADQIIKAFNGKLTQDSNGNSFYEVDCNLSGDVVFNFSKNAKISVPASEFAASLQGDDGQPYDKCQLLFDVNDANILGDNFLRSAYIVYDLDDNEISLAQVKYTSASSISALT", "assay": "in vitro", "conditions": "for degradation by Sap2 (in words): 6.25 μg mL^−1 Sap2, 150 μg mL^−1 peptide; for degradation by Sap2 (in words) / intact peptide remaining after incubation with higher Sap2 concentration: 2 h, 37° C.; for intact peptide remaining after incubation with higher Sap2 concentration: 18 μg mL^−1 Sap2, 150 μg mL^−1 peptide", "method": "(§1) Experiments were done in 1 mM NaPB. The mixtures were incubated at 37° C. for 2 h, and NaPB with no Sap was used as a control. After the incubation, the samples were mixed with tricine sample buffer (without Coomassie Blue G-250, except in control samples) containing β-mercaptoethanol and boiled for 5 min at 100° C. to inactivate the proteases. The degraded and non-degraded peptides were separated by gel electrophoresis in 10-20% Tris-tricine gels (Bio-Rad), and the gels were then fixed in a 10% acetic acid/40% methanol/50% water mixture for 30 min. The fixed gels were stained with Bio-Safe Coomassie stain (Bio-Rad) for 1 h and washed with fresh water three times, once overnight and then twice for at least 2 h each time. The gels were imaged on a Chemidoc imager (Bio-Rad), and densitometric analysis was done with Image Lab software (Bio-Rad). […] Three replicates of the assay were done.\n(§2) To measure the antifungal activity of the peptides following degradation by the Saps, the antifungal activity assay was performed as described above, except the peptides were first exposed to Saps. The peptide fragments were prepared by incubating each peptide (150 μg mL^−1) with 6.25 μg mL^−1 Sap9 or 18 μg mL^−1 Sap2 for 2 h at 37° C. The enzymes were then inactivated by heating at 100° C. for 5 min. As controls, each peptide was also incubated with only NaPB buffer. Samples were then stored at −20° C. until use in the antifungal activity assay.\n(§3) The intact peptide was then separated from the degradation products using gel electrophoresis and quantified the level of degradation using densitometric analysis of Coomassie-stained gels.\n(§4) To amplify differences in antifungal activity due to degradation by the Saps, the concentrations of the Saps was increased by at least two-fold compared to the concentrations used for the gel electrophoresis data in FIGS. 1A-1D (to 6.25 μg mL^−1 for Sap9 and 18 μg mL^−1 for Sap2)."}, "[2]": {"biological_target": "T2, Sap9 (Candida albicans, UniProt Q59SU1)", "T2 sequence (Q59SU1 18-520)": "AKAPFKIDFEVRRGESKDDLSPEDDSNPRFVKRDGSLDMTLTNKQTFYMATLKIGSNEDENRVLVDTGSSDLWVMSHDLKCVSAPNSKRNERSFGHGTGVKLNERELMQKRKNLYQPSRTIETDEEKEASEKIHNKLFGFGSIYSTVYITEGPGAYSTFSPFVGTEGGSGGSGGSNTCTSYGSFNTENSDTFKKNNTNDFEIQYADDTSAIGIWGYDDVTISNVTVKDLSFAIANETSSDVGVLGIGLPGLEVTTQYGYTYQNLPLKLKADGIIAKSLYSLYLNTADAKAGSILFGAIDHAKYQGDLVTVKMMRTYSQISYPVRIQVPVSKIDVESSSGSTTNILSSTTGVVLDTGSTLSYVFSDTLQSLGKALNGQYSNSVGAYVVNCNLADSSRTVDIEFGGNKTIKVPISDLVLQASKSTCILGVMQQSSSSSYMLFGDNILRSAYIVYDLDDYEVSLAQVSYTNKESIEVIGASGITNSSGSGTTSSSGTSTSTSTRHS", "assay": "in vitro", "conditions": "Candida albicans, isolated enzyme", "method": "as §1, §2, §3, §4"}, "[3]": {"biological_target": "T1, Sap2", "conditions": "6.25 μg mL^−1 Sap2", "method": "(§5) The cleavage sites of the Saps and the abundance of the fragments produced by cleavage were determined using mass spectrometry. […] The binding solution was 0.1% formic acid, and the releasing solution was 0.1% formic acid/60% acetonitrile (ACN). To ensure equal flow-through volume of each sample, 18 μL of desalted sample was aliquoted and 1 μL of the four-amino acid peptide MRFA at 0.1 mg mL^−1 was added. Samples were manually loaded through loop injection at 25 μL min^−1 with 40% ACN/0.1% formic acid. Mass spectra were acquired with a Thermo Scientific Orbitrap Fusion Lumos Tribrid mass spectrometer with data-dependent analysis at a 5 s cycle time. Manufacturer recommended source parameters for a flow rate of 25 μL min^−1 were applied. Full scan mass spectra of m z^−1 350-1550 were acquired in the orbitrap at R=120000 (m z^−1 200) with fluoranthene ion as the internal calibrant. CID and ETD fragments of the most intense ions (z>1) were recorded with the orbitrap at R=60000 (m z^−1 200). Dynamic exclusion was set at 30 s.\n(§6) The molecular weights of the peptides and their fragments were calculated from full scan MS spectra using the XTract program in the XCalibur software (Thermo Scientific). MS/MS spectra from ETD and CID fragmentation were processed using Proteome Discoverer (V2.1) with Prosight PD node to identify peptides and their degradation products. […] Intensities of identified peptides and their degradation products relative to the internal standard MRFA were obtained from the deconvoluted full scan mass spectra.\n(§7) After incubation of the peptides with each Sap, the four-amino-acid peptide MRFA was added as an internal standard, and samples were directly injected into the mass spectrometer."}, "[4]": {"biological_target": "T2, Sap9", "conditions": "3.13 μg mL^−1 Sap9", "method": "as §5, §6, §7"}, "[5]": {"tested_on": "C. albicans cells (ATCC 90028)", "assay": "Degradation of peptides by whole C. albicans cells, gel densitometry", "type": "in vitro ADME", "conditions": "1×10^9 cells mL^−1, 150 μg mL^−1 peptide, 2 h, 37° C., 100 mM NaPB", "method": "For degradation with C. albicans, a single colony of the ATCC 90028 strain (American Type Culture Collection) was used to inoculate YPD. The culture was grown overnight, subcultured, and grown to an optical density of 1-1.2 at OD600. All incubations were done at 30° C. The cells were washed three times in 100 mM NaPB and diluted to 2×10^9 cells mL^−1. Equal volumes of cells and peptides were mixed and incubated for 2 h at 37° C. The cells were removed by centrifugation, and the supernatants were mixed with tricine sample buffer and boiled for 10 min. The samples were then run on gels and analyzed as described above for degradation by the Saps. Three biological replicates were performed.\nAfter observing the effect of residue modifications on the cleavage of Hst-5 by the purified recombinant Saps, whether incubation of the peptides with whole C. albicans cells expressing Saps (rather than Saps produced recombinantly) would yield similar results was evaluated. Hst-5 and the synthetic peptides were incubated with C. albicans cells for 2 h at 37° C. in 100 mM NaPB. The high ionic strength of this buffer prevents internalization of the peptides by C. albicans (4) allowing analysis of degradation of the peptides without the confounding effects of peptide internalization, which would reduce the amount of peptide in the reaction buffer."}, "[6]": {"tested_on": "Sap2", "assay": "6.25 μg mL^−1 Sap2 in 1 mM NaPB", "conditions": "C. albicans, 37° C., up to 2 h"}, "[7]": {"tested_on": "Sap2", "assay": "18 μg mL^−1 Sap2 in 1 mM sodium phosphate buffer (NaPB)", "conditions": "C. albicans, 37° C., up to 2 h"}, "[8]": {"tested_on": "Sap9", "assay": "3.13 μg mL^−1 Sap9 in 1 mM NaPB", "conditions": "C. albicans, 37° C., up to 2 h"}}, "note": "Residues, ends and D or L forms follow the SMILES beside them. No end group written: not given here.", "data": [{"compound": "C[C@H](NC(=O)[C@H](Cc1cnc[nH]1)NC(=O)[C@H](CO)NC(=O)[C@@H](N)CC(=O)O)C(=O)N[C@@H](CCCCN)C(=O)N[C@@H](CCCNC(=N)N)C(=O)N[C@@H](Cc1cnc[nH]1)C(=O)N[C@@H](Cc1cnc[nH]1)C(=O)NCC(=O)N[C@@H](Cc1ccc(O)cc1)C(=O)N[C@@H](CCCCN)C(=O)N[C@@H](CCCNC(=N)N)C(=O)N[C@@H](CCCCN)C(=O)N[C@@H](Cc1ccccc1)C(=O)N[C@@H](Cc1cnc[nH]1)C(=O)N[C@@H](CCC(=O)O)C(=O)N[C@@H](CCCCN)C(=O)N[C@@H](Cc1cnc[nH]1)C(=O)N[C@@H](Cc1cnc[nH]1)C(=O)N[C@@H](CO)C(=O)N[C@@H](Cc1cnc[nH]1)C(=O)N[C@@H](CCCNC(=N)N)C(=O)NCC(=O)N[C@@H](Cc1ccc(O)cc1)C(=O)O", "note": "[Hst-5, reference compound]", "values": [{"measurement": "remaining at 2 h, 150 μg mL^−1", "setting": "[1]; Candida albicans, isolated enzyme", "result": 61, "unit": "%"}, {"measurement": "remaining at 2 h, 150 μg mL^−1", "setting": "[2]", "result": 47, "unit": "%"}, {"measurement": "mass spectrometry signal of intact peptide versus fragments, Sap2", "setting": "[3]", "result": "intact peptide having the highest signal"}, {"measurement": "mass spectrometry signal of intact peptide versus fragments, Sap9", "setting": "[4]", "result": "signal for the degradation fragment containing amino acids 1-17 of Hst-5 was higher than the intact peptide"}]}, {"compound": "CC(C)C[C@H](NC(=O)[C@H](CCCNC(=N)N)NC(=O)[C@H](CCCCN)NC(=O)[C@H](Cc1ccc(O)cc1)NC(=O)CNC(=O)[C@H](Cc1c[nH]cn1)NC(=O)[C@H](Cc1c[nH]cn1)NC(=O)[C@H](CCCNC(=N)N)NC(=O)[C@H](CCCCN)NC(=O)[C@H](C)NC(=O)[C@H](Cc1c[nH]cn1)NC(=O)[C@H](CO)NC(=O)[C@@H](N)CC(=O)O)C(=O)N[C@@H](Cc1ccccc1)C(=O)N[C@@H](Cc1c[nH]cn1)C(=O)N[C@@H](CCC(=O)O)C(=O)N[C@@H](CCCCN)C(=O)N[C@@H](Cc1c[nH]cn1)C(=O)N[C@@H](Cc1c[nH]cn1)C(=O)N[C@@H](CO)C(=O)N[C@@H](Cc1c[nH]cn1)C(=O)N[C@@H](CCCNC(=N)N)C(=O)NCC(=O)N[C@@H](Cc1ccc(O)cc1)C(=O)O", "note": "[Peptide K13L] (H-DSHAKRHHGYKRLFHEKHHSHRGY-OH; N-terminus and C-terminus assumed)", "values": [{"measurement": "mass spectrometry signal of intact peptide versus fragments, Sap9", "setting": "[4]", "result": "apparent shift in cleavage site preference compared to the parent Hst-5"}, {"measurement": "degradation by C. albicans cells (in words)", "setting": "[5]", "result": "increase in degradation compared to the parent Hst-5"}]}, {"compound": "CC(C)C[C@H](NC(=O)[C@H](CCC(=O)O)NC(=O)[C@H](Cc1c[nH]cn1)NC(=O)[C@H](Cc1ccccc1)NC(=O)[C@H](CCCCN)NC(=O)[C@H](CCCNC(=N)N)NC(=O)[C@H](CCCCN)NC(=O)[C@H](Cc1ccc(O)cc1)NC(=O)CNC(=O)[C@H](Cc1c[nH]cn1)NC(=O)[C@H](Cc1c[nH]cn1)NC(=O)[C@H](CCCNC(=N)N)NC(=O)[C@H](CCCCN)NC(=O)[C@H](C)NC(=O)[C@H](Cc1c[nH]cn1)NC(=O)[C@H](CO)NC(=O)[C@@H](N)CC(=O)O)C(=O)N[C@@H](Cc1c[nH]cn1)C(=O)N[C@@H](Cc1c[nH]cn1)C(=O)N[C@@H](CO)C(=O)N[C@@H](Cc1c[nH]cn1)C(=O)N[C@@H](CCCNC(=N)N)C(=O)NCC(=O)N[C@@H](Cc1ccc(O)cc1)C(=O)O", "note": "[Peptide K17L] (H-DSHAKRHHGYKRKFHELHHSHRGY-OH; N-terminus and C-terminus assumed)", "values": [{"measurement": "degradation by Sap2 (in words)", "setting": "[1]", "result": "No detectable degradation"}, {"measurement": "intact peptide remaining after incubation with higher Sap2 concentration", "setting": "[1]", "result": "over 70%"}, {"measurement": "remaining at 2 h, 150 μg mL^−1", "setting": "[2]", "result": 77, "unit": "%"}, {"measurement": "cleavage at the C-terminal side of K17 by Sap2 (mass spectrometry)", "setting": "[3]", "result": "still cleaved"}, {"measurement": "cleavage on the C-terminal side of K17 by Sap9 (mass spectrometry)", "setting": "[4]", "result": "neither K17R nor K17L showed significant cleavage at this site"}, {"measurement": "mass spectrometry signal of intact peptide versus fragments, Sap9", "setting": "[4]", "result": "the most intense signal came from the intact peptide"}]}, {"compound": "C[C@H](NC(=O)[C@H](Cc1c[nH]cn1)NC(=O)[C@H](CO)NC(=O)[C@@H](N)CC(=O)O)C(=O)N[C@@H](CCCCN)C(=O)N[C@@H](CCCNC(=N)N)C(=O)N[C@@H](Cc1c[nH]cn1)C(=O)N[C@@H](Cc1c[nH]cn1)C(=O)NCC(=O)N[C@@H](Cc1ccc(O)cc1)C(=O)N[C@@H](CCCCN)C(=O)N[C@@H](CCCNC(=N)N)C(=O)N[C@@H](CCCCN)C(=O)N[C@@H](Cc1ccccc1)C(=O)N[C@@H](Cc1c[nH]cn1)C(=O)N[C@@H](CCC(=O)O)C(=O)N[C@@H](CCCNC(=N)N)C(=O)N[C@@H](Cc1c[nH]cn1)C(=O)N[C@@H](Cc1c[nH]cn1)C(=O)N[C@@H](CO)C(=O)N[C@@H](Cc1c[nH]cn1)C(=O)N[C@@H](CCCNC(=N)N)C(=O)NCC(=O)N[C@@H](Cc1ccc(O)cc1)C(=O)O", "note": "[Peptide K17R] (H-DSHAKRHHGYKRKFHERHHSHRGY-OH; N-terminus and C-terminus assumed)", "values": [{"measurement": "degradation by Sap2 (in words)", "setting": "[1]", "result": "No detectable degradation"}, {"measurement": "intact peptide remaining after incubation with higher Sap2 concentration", "setting": "[1]", "result": "over 90%"}, {"measurement": "remaining at 2 h, 150 μg mL^−1", "setting": "[2]", "result": 82, "unit": "%"}, {"measurement": "cleavage at the C-terminal side of K17 by Sap2 (mass spectrometry)", "setting": "[3]", "result": "still cleaved"}, {"measurement": "cleavage on the C-terminal side of K17 by Sap9 (mass spectrometry)", "setting": "[4]", "result": "neither K17R nor K17L showed significant cleavage at this site"}, {"measurement": "mass spectrometry signal of intact peptide versus fragments, Sap9", "setting": "[4]", "result": "the most intense signal came from the intact peptide"}]}, {"compound": "DSHAKRHHGYKRKFHELHHSHRGY", "values": [{"measurement": "cleaved bond", "setting": "[6]", "result": "L17-H18"}]}, {"compound": "DSHAKRHHGYKRKFHERHHSHRGY", "values": [{"measurement": "cleaved bond", "setting": "[6]", "result": "R17-H18"}, {"measurement": "not cleaved", "setting": "[7]", "result": "over 90% remaining"}]}, {"compound": "DSHAKRHHGYRRKFHERHHSHRGY", "values": [{"measurement": "not cleaved", "setting": "[8]", "result": "no observable degradation"}, {"measurement": "not cleaved", "setting": "[6]", "result": "no observable degradation"}]}]}
